Patent US10959925B2, “Hair cosmetic composition” (KAO CORPORATION, priority 2016, dated 2021)

Experiment: physchem

logP: -0.41
Compound: CC1COC(=O)O1 (stereo not shown) [propylene carbonate]
